Columns and labels:
[1] = molecular target: human serum albumin (HSA) (Homo sapiens, UniProt P02768); assay: HSA thermal denaturation; assay type: binding; details: HSA alone 114°C; 280 nm
Method: The HSA thermal decomposition was followed at 280 nm upon increasing the temperature from 30°C to 130°C at a 1°C min^−1 rate from the spectral change. In order to better examine the processes involving the interaction of metal complexes and protein structure, viscometric titration was carried out in the same manner as for the nucleic acid.

[2] = system: HeLa cells; assay: Matrigel invasion analysis; assay type: cell-based, human; details: 6.25 and 12.5 μM, 24 h, vs negative control
Method: The analysis was completed with U87 and HeLa cell lines to assess the metastatic potential of tumor cells using transwell inserts with an 8 μm pore size polycarbonate membrane (Corning Costar, Cambridge, MA, USA) coated with 1/5 of Matrigel (Beckton Dickinson, Bedford, MA, USA) and air-dried at room temperature. After seeding the U87 and HeLa cell lines (3 × 10^5cells/insert), the complex concentrations were selected as 6.25 or 12.5 μM and incubated at 37°C in a humidified incubator with 5% CO2 for 24 h. The cell monolayers in the transwell inserts were fixed with ice-cold methanol and stained with 0.05% crystal violet for the analysis. The invasion of the cells to the basolateral side of the inserts was investigated using a light microscope with 40× magnification.

[3] = system: CHO-K1 cells; assay: MTT cell viability assay (non-cancer control); assay type: cell-based, Chinese hamster
Method: Cell culture growth conditions: Selected cancer cell lines from different origins, including human glioblastoma A172 (CRL-1620), LN229 (CRL-2611), U87 (HTB-14) cell lines, human cervix HeLa (ATCC, CCL-2), human breast MDA -231 (HTB-26), human prostate PC-3 (ATCC, CRL-1435), human lung A-549 (CCL-185), and non-cancer Chinese hamster ovary CHOK1 cell line (CCL61) (which was used as control) were purchased from American Type Culture Collection (ATCC, USA). These cultures were grown in Dulbecco's modified Eagle's medium-F12 (DMEM/F12, #D0547, Sigma-Aldrich) supplemented with 5% fetal bovine serum (#10500, Gibco) and 1% antibiotic-antimycotic (#15240, Gibco), and incubated at 37°C and 5% CO2. They were harvested and used for the following assays after reaching 70–80% confluency.
The used cell lines (A172, LN229, U87, HeLa, MDA-231, PC-3, A549, and CHO-K1) were harvested and seeded (6 × 10^3 cells/well) into the 96-well plates and incubated at 37°C and 5% CO2 for 24 h. After that, the synthesized Cu(II) and Pt(II) complexes, at a concentration range of 6.25 to 100 μM in DMEM-F12, were added to the cell monolayers and incubated at 37°C and 5% CO2 for 24, 48, and 72 h. The dose–response relationships of the synthesized complexes were determined by using an MTT colorimetric agent (3-[4,5-dimethylthiazol-2-yl]-2,5-diphenyltetrazolium bromide, #M5655, Sigma-Aldrich), which is reduced by the mitochondrial enzymes of the metabolically active live cells and converted into a purple formazan product. The MTT stock solution was later dissolved in a phosphate buffer solution (PBS, 5 mg/ml, w/v) and, then, 5 μg/ml of MTT in DMEM was added into each well and incubated at 37°C and 5% CO2 for 4 h. DMSO (#D 8418, Sigma-Aldrich), as a dissolving solution for formazan crystals, was added into each well and placed in a shaker for 2 h. The absorbance at a test wavelength of 570 nm and a reference wavelength of 630 nm was measured on a microplate reader.

[4] = system: U87 cells; assay: Apoptosis, TUNEL assay; assay type: cell-based, human; details: U87, 50 and 100 μM, 24 h
Method: (§1) The sensitive U87 and HeLa cell lines, selected according to the results of the IC50 values of the examined Cu(II) and Pt(II) complexes, were seeded at a seeding cell number of 5 × 10^4 cells on the 12 mm round cover slips placed in the 24-well plate and incubated at 37°C and 5% CO2 for 24 h. The following day, the Cu(dpq)Cl2, Cu(dtq)Cl2, Pt(dpq)Cl2 and Pt(dtq)Cl2 complexes were freshly prepared and added at a range of 50 and 100 μM to the cell monolayers. After a 24 h incubation time, the cell monolayers were fixed with 4% paraformaldehyde for 15 min at room temperature and, then, the terminal deoxynucleotidyl transferase (TdT)-mediated dUTP nick end labeling (TUNEL) method was applied to detect the DNA damage associated with apoptosis. A commercial assay kit, In Situ Cell Death Detection Kit (Roche, #11767291910), was used for this purpose in accordance to the manufacturer's instructions. The experiment was repeated twice with the tested cell lines, and images were recorded with using a Leica DMI 6000 fluorescence microscope with 40× magnification.

[5] = system: HeLa cells; assay: Apoptosis, TUNEL assay; assay type: cell-based, human; details: 50 and 100 μM, 24 h
Method: as §1

[6] = system: lung A549, cervix HeLa, and breast MD-A231 cells; assay: ROS production, DCFDA assay; assay type: cell-based, human; details: MDA-231, 6.25 to 100 μM, 24 h, vs negative control
Method: (§2) The reactive oxygen species (ROS) formation on the selected cell lines upon exposure to the synthesized Cu(II) and Pt(II) complexes was investigated using the oxidation-sensitive dye, 2ʹ,7ʹ-dichlorofluorescein diacetate (DCFDA, #D6883 Sigma-Aldrich). The cell lines (A172, LN229, U87, HeLa, MDA-231, PC-3, A549, and CHO-K1) were seeded (6 × 10^3 cells/well) into the 96-well plates and incubated at 37°C and 5% CO2 for 24 h. After that, the Cu(II) and Pt(II) complexes, at a concentration range of 6.25 to 100 μM, were added to the cell monolayers. Hydrogen peroxide (H2O2), at concentrations from 50 to 500 μM, was utilized as a positive control. The following day, 5 μM of DCFDA in PBS was added to the cell monolayers and, then, the plate was incubated for 30–45 min. Consequently, the fluorescence intensity was measured with 485 nm excitation and 535 nm emission wavelengths using a microplate reader. The fluorescence values of each treatment were normalized to the negative control, including only growth medium without any treatment. The assay was repeated in triplicate.

[7] = system: prostate PC3 cells; assay: ROS production, DCFDA assay; assay type: cell-based, human; details: 6.25 to 100 μM, 24 h
Method: as §2

[8] = system: A172, LN229, U87, A549, Hela, PC-3, and MDA-231 cells; assay: ROS production, DCFDA assay, all used cell lines; assay type: cell-based, human; details: all used cell lines; 6.25 to 100 μM, 24 h
Method: as §2

Sequence of human serum albumin (HSA) (P02768 25-609): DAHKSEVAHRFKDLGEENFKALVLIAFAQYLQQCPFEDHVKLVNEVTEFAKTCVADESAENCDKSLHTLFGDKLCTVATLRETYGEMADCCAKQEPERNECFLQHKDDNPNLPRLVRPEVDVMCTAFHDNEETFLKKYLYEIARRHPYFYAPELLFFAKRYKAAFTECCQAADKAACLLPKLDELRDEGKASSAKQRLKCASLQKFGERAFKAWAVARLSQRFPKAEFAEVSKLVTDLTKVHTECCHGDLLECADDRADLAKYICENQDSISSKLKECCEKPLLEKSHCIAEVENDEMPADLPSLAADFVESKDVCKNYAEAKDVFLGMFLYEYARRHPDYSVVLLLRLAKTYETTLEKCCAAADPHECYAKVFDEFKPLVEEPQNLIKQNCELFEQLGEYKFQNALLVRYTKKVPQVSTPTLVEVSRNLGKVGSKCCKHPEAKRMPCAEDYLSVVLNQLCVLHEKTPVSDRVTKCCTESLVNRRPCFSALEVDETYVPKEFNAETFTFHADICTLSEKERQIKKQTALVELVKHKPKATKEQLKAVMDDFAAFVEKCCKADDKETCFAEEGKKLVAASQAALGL

Compound: [Cl][Cu][Cl].c1ccc(-c2nc3ccc(-c4ccc5nc(-c6ccccn6)c(-c6ccccn6)nc5c4)cc3nc2-c2ccccn2)nc1 [Cu(tpbq)Cl2]
- melting point of HSA upon addition of the complex [1]: 110 °C
- anti-invasive effect [2]: did not have any anti-invasive effect
- IC50 ([3]; CHO-K1, 24 h exposure): > 100 µM
- IC50 ([3]; CHO-K1, 48 h exposure): > 100 µM
- IC50 ([3]; CHO-K1, 72 h exposure): > 100 µM
- apoptosis (DNA fragmentation, TUNEL) [4]: none of which induced any apoptosis
- apoptosis (DNA fragmentation, TUNEL) [5]: none of which induced any apoptosis

Compound: [Cl][Cu][Cl].c1csc(-c2nc3ccc(-c4ccc5nc(-c6cccs6)c(-c6cccs6)nc5c4)cc3nc2-c2cccs2)c1 [Cu(ttbq)Cl2]
- melting point of HSA upon addition of the complex [1]: 111 °C
- anti-invasive effect [2]: high anti-invasive effects
- increase of ROS production [6]: ~2 fold
- ROS formation [7]: no formation
- ROS formation [8]: highest increase in the level of ROS formation
- IC50 ([3]; CHO-K1, 24 h exposure): > 100 µM
- IC50 ([3]; CHO-K1, 48 h exposure): > 100 µM
- IC50 ([3]; CHO-K1, 72 h exposure): > 100 µM
- apoptosis (DNA fragmentation, TUNEL) [4]: apoptotic potential of the U87 cells was observed
- apoptosis (DNA fragmentation, TUNEL) [5]: none of which induced any apoptosis

Compound: [Cl][Pt][Cl].c1ccc(-c2nc3ccc(-c4ccc5nc(-c6ccccn6)c(-c6ccccn6)nc5c4)cc3nc2-c2ccccn2)nc1 [Pt(tpbq)Cl2]
- melting point of HSA upon addition of the complex [1]: 109 °C
- anti-invasive effect [2]: high anti-invasive effects
- ROS formation [8]: did not induce any ROS formation
- IC50 ([3]; CHO-K1, 24 h exposure): > 100 µM
- IC50 ([3]; CHO-K1, 48 h exposure): 86.6 ± 1.98 µM
- IC50 ([3]; CHO-K1, 72 h exposure): 77.5 ± 0.87 µM
- apoptosis (DNA fragmentation, TUNEL) [4]: apoptotic potential of the U87 cells was observed
- apoptosis (DNA fragmentation, TUNEL) [5]: none of which induced any apoptosis

Compound: [Cl][Pt][Cl].c1csc(-c2nc3ccc(-c4ccc5nc(-c6cccs6)c(-c6cccs6)nc5c4)cc3nc2-c2cccs2)c1 [Pt(ttbq)Cl2]
- melting point of HSA upon addition of the complex [1]: 105 °C
- anti-invasive effect [2]: higher potency to prevent the invasion
- increase of ROS production [6]: ~2 fold
- ROS formation [7]: no formation
- IC50 ([3]; CHO-K1, 24 h exposure): > 100 µM
- IC50 ([3]; CHO-K1, 48 h exposure): > 100 µM
- IC50 ([3]; CHO-K1, 72 h exposure): > 100 µM
- apoptosis (DNA fragmentation, TUNEL) [4]: none of which induced any apoptosis
- apoptosis (DNA fragmentation, TUNEL) [5]: apoptosis on HeLa cells was only observed
